The text below walks through data of ChEMBL document CHEMBL4339230, “X-ray Crystallography Deciphers the Activity of Broad-Spectrum Boronic Acid β-Lactamase Inhibitors” (ACS Med Chem Lett, 2019).

Assay [1] is described as follows: Inhibition of Pseudomonas aeruginosa AmpC expressed in Escherichia coli BL21(DE3) using cephalothin as reporter substrate incubated for 300 secs by spectrophotometric assay.
The nature of assay [2]: Competitive inhibition of recombinant GES-5 expressed in Escherichia coli BL21(DE3) using nitrocefin substrate by spectrophotometry.
Assay [3] in a line: Inhibition of bacterial OXA-24 using cephalothin as reporter substrate incubated for 300 secs by spectrophotometric assay. Also noted: species or system Bacteria.
Assay [4] can be described thus: Inhibition of bacterial NDM1 using cephalothin as reporter substrate incubated for 300 secs by spectrophotometric assay. Also on record: species or system Bacteria.
Assay [5] is described as follows: Inhibition of Klebsiella pneumoniae KPC2 using cephalothin as reporter substrate incubated for 300 secs by spectrophotometric assay.

pKi: −log10 of the molar value.

In general, pKi refers to the negative decadic logarithm of the Ki, by convention in mol/L. Consider `O=CN(C=O)Cc1ccc2sc(B(O)O)cc2c1`, for which the pKi is 7.40 in assay [1] and 4.62 in assay [2].

For the compound `CC(C)(C)OC(=O)c1cccc2cc(B(O)O)sc12`, the negative logarithm of the Ki (pKi) was 5.89 in assay [1]; 4.57 in assay [3]; 5.49 in assay [4]; 4.77 in assay [2]; 5.49 in assay [5].

For the compound `NCc1ccc2sc(B(O)O)cc2c1`, the pKi was 7.30 in assay [1]; 4.02 in assay [3]; 5.26 in assay [4]; 4.82 in assay [2]; 5.36 in assay [5].

As for `CC(C)(C)OC(=O)Nc1cccc2cc(B(O)O)sc12`, the negative-log Ki (pKi) was 5.85 in assay [1]; 4.19 in assay [3]; 4.96 in assay [4]; 5.24 in assay [2]; 5.85 in assay [5].

As to `OB(O)c1cc2cc(CBr)ccc2s1`, the pKi in assay [1] was 7.15; in assay [3], 4.17; in assay [4], 5.23; in assay [2] it was 5.05; in assay [5], 5.55.

In the case of `O=C(O)c1cccc2cc(B(O)O)sc12`, the negative-log Ki (pKi) in assay [1] was 6.38; in assay [3], 4.80; in assay [4], 5.52; in assay [2] it was 6.80; in assay [5], 5.31.
